Patent US7183238B2, “[1,2]-oxazine-3,5-diones” (Bayer CropScience AG, priority 2001, dated 2007)

Legend:
Format in all cases: in vivo
[1] = test system: larvae of the mustard beetle (Phaedon cochleariae); assay: Phaedon larvae test; conditions: 500 ppm active compound, cabbage leaves (Brassica oleracea) dipped
Procedure: (§1) Phaedon Larvae Test • Solvent: 7 parts by weight of dimethylformamide • Emulsifier: 2 parts by weight of alkylaryl polyglycol ether To produce a suitable preparation of active compound, 1 part by weight of active compound is mixed with the stated amounts of solvents and emulsifier, and the concentrate is diluted with emulsifier-containing water to the desired concentration. Cabbage leaves (Brassica oleracea) are treated by being dipped into the preparation of active compound of the desired concentration and are populated with larvae of the mustard beetle (Phaedon cochleariae) while the leaves are still moist. After the desired period of time, the kill in % is determined. 100% means that all beetle larvae have been killed; 0% means that none of the beetle larvae has been killed.

[2] = test system: caterpillars of the armyworm (Spodoptera frugiperda); assay: Spodoptera frugiperda test; conditions: 500 ppm active compound, cabbage leaves (Brassica oleracea) dipped
Procedure: as §1, with “Spodoptera frugiperda” for “Phaedon Larvae”, “solvent” for “solvents”, “caterpillars” for “larvae”, “armyworm (Spodoptera frugiperda)” for “mustard beetle (Phaedon cochleariae)”, “caterpillars” for “beetle larvae”

[3] = test system: greenhouse red spider mite (Tetranychus urticae); assay: Tetranychus test (OP-resistant/dip treatment); conditions: 100 ppm active compound, OP-resistant, infested bean plants (Phaseolus vulgaris) dipped
Procedure: Tetranychus Test (OP-Resistant/dip Treatment)
• Solvent: 7 parts by weight of dimethylformamide • Emulsifier: 2 parts by weight of alkylaryl polyglycol ether
To produce a suitable preparation of active compound, 1 part by weight of active compound is mixed with the stated amounts of solvent and emulsifier, and the concentrate is diluted with emulsifier-containing water to the desired concentration.
Bean plants (Phaseolus vulgaris) which are heavily infested by all stages of the greenhouse red spider mite (Tetranychus urticae) are dipped into a preparation of active compound of the desired concentration.
After the desired period of time, the effect in % is determined. 100% means that all spider mites have been killed; 0% means that none of the spider mites has been killed.

Cc1ccc(-c2ccc(Cl)cc2)cc1C1=C(OC(=O)OCC(C)C)C(C)(C)ON(C)C1=O [Example I-c-1]
Kill rate in % after 7^d [1]: 100% | Kill rate in % after 7^d [2]: 100% | Kill rate in % after 7^d [3]: 98%
